Measured values published in US20120040930A1, “TETRACYCLIC TERPENE SERIES COMPOUNDS, METHODS FOR PREPARING SAME, USES THEREOF AS MEDICINES AND PHARMACEUTICAL COMPOUNDS CONTAINING SAME” (priority 2005, published 2012).

Tests used:
[1] = test system: muscle nicotinic acetylcholine receptors; test: Electrophysiology: interaction with muscle nicotinic acetylcholine receptors, frog neuromuscular junction; conditions: 160 μM
Source text: (§1) Secondly, the inventors determined, using electrophysiology, the ability of compound 8e to interact with muscle nicotinic acetylcholine receptors.

[2] = molecular target: T1, muscle nicotinic acetylcholine receptors (Mus musculus, UniProt P02716+P04756+P09690+P20782); test: Electrophysiology: interaction with muscle nicotinic acetylcholine receptors, mouse neuromuscular junction
T1 construct: isolated living vertebrate (frog and mouse) neuromuscular preparations; from tissue; host or cells: isolated mouse neuromuscular preparation
T1 sequence (P04756 21-457): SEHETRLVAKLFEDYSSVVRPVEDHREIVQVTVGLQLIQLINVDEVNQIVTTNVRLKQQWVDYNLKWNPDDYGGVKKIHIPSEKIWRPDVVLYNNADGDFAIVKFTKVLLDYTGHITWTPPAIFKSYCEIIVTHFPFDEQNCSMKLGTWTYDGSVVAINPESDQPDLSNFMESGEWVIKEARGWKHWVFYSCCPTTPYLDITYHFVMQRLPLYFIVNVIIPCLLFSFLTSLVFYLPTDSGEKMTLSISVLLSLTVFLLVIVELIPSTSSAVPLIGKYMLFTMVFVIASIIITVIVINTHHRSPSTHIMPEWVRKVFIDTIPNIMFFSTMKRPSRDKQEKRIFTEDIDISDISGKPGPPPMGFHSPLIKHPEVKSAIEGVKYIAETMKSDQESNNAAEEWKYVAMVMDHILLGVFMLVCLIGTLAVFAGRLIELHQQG
T1 sequence (P09690 24-501): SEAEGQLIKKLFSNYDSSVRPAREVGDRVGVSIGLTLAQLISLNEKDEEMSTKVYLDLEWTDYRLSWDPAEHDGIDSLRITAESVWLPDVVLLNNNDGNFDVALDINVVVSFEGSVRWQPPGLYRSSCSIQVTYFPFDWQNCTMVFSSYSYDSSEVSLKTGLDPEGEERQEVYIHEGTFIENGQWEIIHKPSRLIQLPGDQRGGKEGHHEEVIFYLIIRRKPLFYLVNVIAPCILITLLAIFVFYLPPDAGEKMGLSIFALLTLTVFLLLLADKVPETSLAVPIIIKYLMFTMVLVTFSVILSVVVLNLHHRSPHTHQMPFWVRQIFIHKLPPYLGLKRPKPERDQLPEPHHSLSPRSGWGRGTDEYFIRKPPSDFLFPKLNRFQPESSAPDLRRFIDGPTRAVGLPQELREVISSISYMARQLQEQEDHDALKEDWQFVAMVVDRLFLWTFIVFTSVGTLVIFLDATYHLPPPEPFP
T1 sequence (P02716 25-520): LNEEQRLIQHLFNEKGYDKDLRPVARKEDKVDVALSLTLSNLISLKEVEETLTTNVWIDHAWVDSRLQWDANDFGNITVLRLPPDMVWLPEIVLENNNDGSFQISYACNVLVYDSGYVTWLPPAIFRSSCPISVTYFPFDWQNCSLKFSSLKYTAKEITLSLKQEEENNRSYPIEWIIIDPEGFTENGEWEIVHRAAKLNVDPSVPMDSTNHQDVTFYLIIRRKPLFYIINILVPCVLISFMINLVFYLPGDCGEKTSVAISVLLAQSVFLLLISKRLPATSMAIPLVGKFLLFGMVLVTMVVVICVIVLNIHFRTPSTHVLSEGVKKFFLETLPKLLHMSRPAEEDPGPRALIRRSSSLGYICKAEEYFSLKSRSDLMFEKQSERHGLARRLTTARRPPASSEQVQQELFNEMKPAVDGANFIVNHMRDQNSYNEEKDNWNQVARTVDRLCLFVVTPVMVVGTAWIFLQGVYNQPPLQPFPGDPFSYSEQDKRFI
T1 sequence (P20782 21-493): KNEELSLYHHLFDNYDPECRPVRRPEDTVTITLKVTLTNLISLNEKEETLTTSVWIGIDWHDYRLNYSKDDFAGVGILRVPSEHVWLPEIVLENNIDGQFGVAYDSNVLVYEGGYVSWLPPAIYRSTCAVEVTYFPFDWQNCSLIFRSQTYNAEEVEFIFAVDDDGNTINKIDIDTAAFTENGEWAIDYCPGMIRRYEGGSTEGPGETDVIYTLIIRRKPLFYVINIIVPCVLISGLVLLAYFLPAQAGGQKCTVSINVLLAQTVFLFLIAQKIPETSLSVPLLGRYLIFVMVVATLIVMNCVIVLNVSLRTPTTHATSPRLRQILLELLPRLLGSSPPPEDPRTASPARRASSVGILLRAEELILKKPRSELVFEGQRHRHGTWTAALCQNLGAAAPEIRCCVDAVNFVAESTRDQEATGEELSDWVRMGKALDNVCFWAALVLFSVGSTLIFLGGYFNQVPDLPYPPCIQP
Source text: as §1

[3] = molecular target: T2, acetylcholinesterase (AChE) isolated from Electrophorus electricus (Electrophorus electricus, UniProt O42275); test: biochemical; conditions: AChE isolated from Electrophorus electricus; read-out: AChE IC50
T2 construct: AChE isolated from Electrophorus electricus; from tissue
T2 sequence (O42275 24-633): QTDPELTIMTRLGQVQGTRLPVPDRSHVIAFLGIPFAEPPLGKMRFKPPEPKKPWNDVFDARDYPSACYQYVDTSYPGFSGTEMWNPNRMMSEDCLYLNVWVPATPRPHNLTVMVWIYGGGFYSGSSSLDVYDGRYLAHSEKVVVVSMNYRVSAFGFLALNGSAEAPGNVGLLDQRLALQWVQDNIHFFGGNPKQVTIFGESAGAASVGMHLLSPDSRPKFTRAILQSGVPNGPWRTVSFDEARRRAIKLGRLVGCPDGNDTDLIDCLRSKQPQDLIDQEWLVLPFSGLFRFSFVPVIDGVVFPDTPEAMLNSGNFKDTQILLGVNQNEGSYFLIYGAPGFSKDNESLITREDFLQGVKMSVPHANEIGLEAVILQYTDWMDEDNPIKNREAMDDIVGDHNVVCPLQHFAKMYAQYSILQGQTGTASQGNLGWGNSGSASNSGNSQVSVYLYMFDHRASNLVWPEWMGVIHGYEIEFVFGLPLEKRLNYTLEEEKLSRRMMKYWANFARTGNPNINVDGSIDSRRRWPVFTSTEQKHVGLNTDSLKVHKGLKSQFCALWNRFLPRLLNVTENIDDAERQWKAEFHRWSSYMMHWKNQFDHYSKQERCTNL

[4] = molecular target: T3, human serum butyrylcholinesterase (BChE) (Homo sapiens, UniProt P06276); test: biochemical; conditions: human serum BChE; read-out: BChE
T3 construct: BChE isolated from human serum; from tissue; host or cells: human serum
T3 sequence (P06276 29-602): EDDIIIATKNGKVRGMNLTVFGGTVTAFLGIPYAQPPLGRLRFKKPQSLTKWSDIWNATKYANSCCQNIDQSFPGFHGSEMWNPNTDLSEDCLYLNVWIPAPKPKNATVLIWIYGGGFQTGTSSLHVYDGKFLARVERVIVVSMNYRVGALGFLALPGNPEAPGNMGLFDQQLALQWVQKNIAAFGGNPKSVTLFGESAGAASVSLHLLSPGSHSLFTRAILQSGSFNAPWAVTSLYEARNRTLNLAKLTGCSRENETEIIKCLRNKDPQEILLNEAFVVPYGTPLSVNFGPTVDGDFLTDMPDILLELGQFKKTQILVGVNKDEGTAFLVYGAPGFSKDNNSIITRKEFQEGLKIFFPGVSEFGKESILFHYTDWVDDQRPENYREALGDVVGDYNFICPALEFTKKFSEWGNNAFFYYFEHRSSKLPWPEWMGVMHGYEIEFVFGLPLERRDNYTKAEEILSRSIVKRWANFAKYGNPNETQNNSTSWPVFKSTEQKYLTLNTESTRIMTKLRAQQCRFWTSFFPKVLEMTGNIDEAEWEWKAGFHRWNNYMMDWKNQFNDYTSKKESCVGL

[5] = test system: skeletal neuromuscular junction; test: Cellular electrophysiology on isolated mouse neuromuscular preparations
Protocol: This extension of synaptic potentials is observed when the mouse neuromuscular preparations are placed in a normal survival medium (Krebs-Ringer) containing (in mM) NaCl, 151; KCl, 5; MgCl2, 1; CaCl2, 2; glucose, 11; and HEPES-NaOH, 5 (pH 7.4); and when the survival medium contains low concentrations of CaCl2 (0.4-1 mM) and high concentrations of MgCl2 (4-8 mM) to reduce the release of acetylcholine. The extension of synaptic potentials at the neuromuscular junction reflects the mean lifespan of synaptic channels opened by acetylcholine during their interactions with skeletal muscle nicotinic receptors. Inhibition of acetylcholinesterase increases acetylcholine concentration at the synaptic cleft, which allows acetylcholine to bind repeatedly with these receptors, thus extending the duration of synaptic responses.
Thus, the inhibition of acetylcholinesterase by this compound is not accompanied by depolarization of the muscle membrane.
From a pharmacological point of view, the inventors first tested the ability of compound 8e to modify nerve axon conduction.

SMILES: CC[C@H](C)C1=N[C@H]2CC=C3C[C@H]4C(=O)C[C@]5(C)[C@@H]([C@H](C)N(C)C)[C@H](O)C[C@@]5(C)[C@@H]4CC[C@H]3[C@]2(C)CO1 [Compound 8e, (20S)-10(9->1)abeo-4,14α-dimethyl-20-dimethylamino(2′-(S-1-methylpropyl)-4′,4′-dihydro[3′,1′]oxazin)-5α,9-pregn-1(10)-en-16α-ol-11-one]
- block of motor end-plate potentials evoked by motor nerve stimulation [1]: 80%
- motor end-plate miniature potentials ([2]; 80 μM, species not given): causes a decrease in amplitude and blocking
- block of motor end-plate potentials evoked by motor nerve stimulation ([2]; 160 μM, mouse neuromuscular junction): 80%
- IC50 [3]: 13 nM
- IC50 [4]: > 1000 nM
- nerve axon conduction ([5]; 1 μM to 300 μM, mouse neuromuscular preparations): does not apparently modify nerve conduction
- synaptic response half-times (motor end-plate potentials and miniature end-plate potentials) ([5]; 1-25 μM, mouse neuromuscular preparations, normal Krebs-Ringer or low CaCl2/high MgCl2 medium): produces an extension of synaptic response half-times
- effect on muscle fiber resting potentials ([5]; concentrations that extend synaptic potentials and higher (160-200 μM)): does not have a significant effect
